Measured values taken from patent publication US20240240224A1, “FLUORESCENT D-TYPE AMINO ACID METABOLISM MARKER-BASED METHOD FOR DETECTING ANTIBACTERIAL DRUG SENSITIVITY TEST” (priority 2020, published 2024).
≈ marks a conversion by molar mass, not a printed value.

Key:
Ec ATCC 25922 [1] = details: cited from earlier work
A. baumannii Ab19 [2] = experiment: BMD susceptibility test; type: cell-based, Acinetobacter baumannii; details: unit assumed
K. pneumoniae Kp6 [3] = experiment: BMD susceptibility test; type: cell-based, Klebsiella pneumoniae; details: unit assumed
P. aeruginosa Pa3 [4] = experiment: FaAST (FDAA metabolic labeling); type: cell-based, Pseudomonas aeruginosa; details: unit assumed
Experimental: (§1) The specific experimental steps are as follows: • 1. Take the colony to be tested that has been cultured overnight on the plate and fully mix it in normal saline to make a uniform bacterial solution. Dilute it into CAMHB medium to make a bacterial solution with OD600=0.05. • 2. Add 45 μl antibiotic solutions to be tested of different concentrations to 96-well plates (see Table 3 for antibiotic concentration gradient settings). • 3. Add 50 μl of bacterial solution prepared in Step 1 to the 96-well plate and mix well. • 4.5 μl of 10 mM Cy5-DAA probe was added to each well (final concentration was 0.15 mM, and its structure was shown in FIG. 1). After mixing, the probe was incubated for 2 hours in the dark. • 5. After dilution with 200 μl PBS solution, the fluorescence intensity of each sample was detected by flow cytometry. The flow detection results are shown in the attached FIG. 4-5, showing the curve of antibiotic concentration gradient and fluorescence intensity, and the MIC (minimum inhibitory concentration) is obtained by referring to this curve.
(§2) Antibiotic resistant strains are shown in bold in the table below.

Pa ATCC 27853 [5] = experiment: FaAST (FDAA metabolic labeling); type: cell-based, Pseudomonas aeruginosa; details: unit assumed
Experimental: as §1, §2

P. aeruginosa Pa2 [6] = experiment: FaAST (FDAA metabolic labeling); type: cell-based, Pseudomonas aeruginosa; details: unit assumed
Experimental: as §1, §2

Pa ATCC 27853 [7] = details: cited from earlier work
[8] = system: Klebsiella pneumoniae KPN6; experiment: VITEK drug sensitivity test; type: cell-based; details: unit assumed
E. coli Ec13 [9] = experiment: BMD susceptibility test; type: cell-based, Escherichia coli; details: unit assumed
K. pneumoniae Kp6 [10] = experiment: FaAST (FDAA metabolic labeling); type: cell-based, Klebsiella pneumoniae; details: unit assumed
Experimental: as §1, with “cytometry.” for “cytometry. The flow detection results are shown in the attached FIG. 4-5, showing the curve of antibiotic concentration gradient and fluorescence intensity, and the MIC (minimum inhibitory concentration) is obtained by referring to this curve.”

[11] = system: Klebsiella pneumoniae KPN6; experiment: FaAST with DAA-Tetra probe; type: cell-based; details: unit assumed
Experimental: The specific experimental steps are as follows: • 1. The tested colonies cultured overnight on the plate were picked and mixed thoroughly in 2× Cation-Adjusted Mueller Hinton Broth medium (2×CAMHB) to make bacterial suspension with turbidity of OD600=0.1. • 2. […] Add 50 μL of the bacterial solution prepared in step 1 (the final concentration of the bacterial solution is OD600=0.05) to the 96-well plate, and add 5 μL of 3 mM DAA-Tetra probe (the final concentration is 0.15 mM), mix well, and incubate in the dark at 37° C. 120 rpm for 2 hours. • 4. After culture, dilute the mixed bacterial solution 10 times with PBS solution, and detect the fluorescence intensity of each sample with flow cytometry. The flow detection result is shown in FIG. 14-19, and the arrow is for the MIC value. The minimum inhibitory concentration of antibiotics was obtained according to the fluorescence signal intensity of flow detection, and the statistical results are shown in Table 6.

E. coli Ec13 [12] = experiment: FaAST (FDAA metabolic labeling); type: cell-based, Escherichia coli; details: unit assumed
Experimental: as §1, with “cytometry.” for “cytometry. The flow detection results are shown in the attached FIG. 4-5, showing the curve of antibiotic concentration gradient and fluorescence intensity, and the MIC (minimum inhibitory concentration) is obtained by referring to this curve.”

E. coli Ec11 [13] = experiment: BMD susceptibility test; type: cell-based, Escherichia coli; details: unit assumed
Pa ATCC 27853 [14] = experiment: BMD susceptibility test; type: cell-based, Pseudomonas aeruginosa; details: unit assumed
P. aeruginosa Pa2 [15] = experiment: BMD susceptibility test; type: cell-based, Pseudomonas aeruginosa; details: unit assumed
A. baumannii Ab19 [16] = experiment: FaAST (FDAA metabolic labeling); type: cell-based, Acinetobacter baumannii; details: unit assumed
Experimental: as §1, §2

E. coli Ec11 [17] = experiment: FaAST (FDAA metabolic labeling); type: cell-based, Escherichia coli; details: unit assumed
Experimental: as §1, §2

Ec ATCC 25922 [18] = experiment: FaAST (FDAA metabolic labeling); type: cell-based, Escherichia coli; details: unit assumed
Experimental: as §1, §2

P. aeruginosa Pa3 [19] = experiment: BMD susceptibility test; type: cell-based, Pseudomonas aeruginosa; details: unit assumed
Ec ATCC 25922 [20] = experiment: BMD susceptibility test; type: cell-based, Escherichia coli; details: unit assumed
E.coli 1146 [21] = experiment: FDAA metabolic labeling susceptibility test (Cy5-DAA probe, flow cytometry); type: cell-based, Escherichia coli; details: Escherichia coli; E.coli 1146; Cy5-DAA probe, 2 hours; read-out: MIC, FDAA
Experimental: as §1

E.coli 1113 [22] = experiment: as above; type: cell-based, Escherichia coli; details: Escherichia coli; E.coli 1113; Cy5-DAA probe, 2 hours; read-out: MIC, FDAA
Experimental: as §1

A. baumannii Ab16 [23] = experiment: BMD susceptibility test; type: cell-based, Acinetobacter baumannii; details: unit assumed
E.coli 1113 [24] = experiment: Vitek 2 drug sensitivity test; type: cell-based, Escherichia coli; on Sensibility: key: S: Drug sensitive; R: Drug resistance
E.coli 1146 [25] = experiment: Vitek 2 drug sensitivity test; type: cell-based, Escherichia coli; on Sensibility: key: S: Drug sensitive; R: Drug resistance
A. baumannii Ab16 [26] = experiment: FaAST (FDAA metabolic labeling); type: cell-based, Acinetobacter baumannii; details: unit assumed
Experimental: as §1, with “cytometry.” for “cytometry. The flow detection results are shown in the attached FIG. 4-5, showing the curve of antibiotic concentration gradient and fluorescence intensity, and the MIC (minimum inhibitory concentration) is obtained by referring to this curve.”

| Structure (SMILES) | CLSI QC range (Ec ATCC 25922 [1]) | BMD (MIC) (A. baumannii Ab19 [2]) | BMD (MIC) (K. pneumoniae Kp6 [3]) | FaAST (MIC) (P. aeruginosa Pa3 [4]) | FaAST (MIC) (Pa ATCC 27853 [5]) | FaAST (MIC) (P. aeruginosa Pa2 [6]) | CLSI QC range (Pa ATCC 27853 [7]) | BMD (MIC) (E. coli Ec13 [9]) | FaAST (MIC) (K. pneumoniae Kp6 [10]) | FaAST (MIC) (E. coli Ec13 [12]) | BMD (MIC) (E. coli Ec11 [13]) | BMD (MIC) (Pa ATCC 27853 [14]) | BMD (MIC) (P. aeruginosa Pa2 [15]) | FaAST (MIC) (A. baumannii Ab19 [16]) | FaAST (MIC) (E. coli Ec11 [17]) | FaAST (MIC) (Ec ATCC 25922 [18]) | BMD (MIC) (P. aeruginosa Pa3 [19]) | BMD (MIC) (Ec ATCC 25922 [20]) | also measured |
| --- | --- | --- | --- | --- | --- | --- | --- | --- | --- | --- | --- | --- | --- | --- | --- | --- | --- | --- | --- |
| NCC[C@H](O)C(=O)N[C@@H]1C[C@H](N)[C@@H](O[C@H]2O[C@H](CN)[C@@H](O)[C@H](O)[C@H]2O)[C@H](O)[C@H]1O[C@H]1O[C@H](CO)[C@@H](O)[C@H](N)[C@H]1O [Amikacin] | 0.5-4^ | 2 µg/mL | 0.5 µg/mL | 8 µg/mL | 4 µg/mL | 0.5 µg/mL | 1-4 | 2 µg/mL | 0.5 µg/mL | 1 µg/mL | 4 µg/mL | 2 µg/mL | 2 µg/mL | 2 µg/mL | 8 µg/mL | 2 µg/mL | 4 µg/mL | 1 µg/mL | MIC, VITEK [8]: 0.5 µg/mL (≈ 0.854 µM); MIC, FaAST [11]: 0.5 µg/mL (≈ 0.854 µM) |
| CO/N=C(\C(=O)N[C@@H]1C(=O)N2C(C(=O)[O-])=C(C[N+]3(C)CCCC3)CS[C@H]12)c1csc(N)n1 [Cefepime, cefepime] | 0.016-0.12 | 1 µg/mL | ≤ 0.25 µg/mL | 4 µg/mL | 2 µg/mL | 0.5 µg/mL | 0.5-4 | > 64 µg/mL | 0.5 µg/mL | > 128 µg/mL | ≤ 0.25 µg/mL | 2 µg/mL | 1 µg/mL | 1 µg/mL | 0.5 µg/mL | ≤ 0.25 µg/mL | 8 µg/mL | ≤ 0.25 µg/mL | MIC (E.coli 1146 [21]): 4 µg/mL (≈ 8.32 µM); MIC (E.coli 1113 [22]): ≥ 128 µg/mL; BMD (MIC) (A. baumannii Ab16 [23]): 128 µg/mL; MIC, Vitek 2 (E.coli 1113 [24]): > 64 µg/mL; Sensibility (E.coli 1113 [24]): R; Sensibility (E.coli 1146 [25]): S; MIC (E.coli 1146 [25]; Escherichia coli): ≤ 1 µg/mL; FaAST (MIC) (A. baumannii Ab16 [26]): 64 µg/mL |
